{"source": "paper PMC10981597", "about": "(Amino Acids, 2024)", "key": {"[1]": {"type": "physicochemical", "details": "pH 7.4"}, "[2]": {"type": "physicochemical", "details": "pH 6.5"}, "[3]": {"details": "human, serum"}}}
{"smiles": "CCCCCCCCCCCCCCNCCCC[C@@H]1NC(=O)[C@@H](N)CSSC[C@@H]2NC(=O)[C@@H]3CSSC[C@@H](C(N)=O)NC(=O)[C@H](CCCCN)NC(=O)CNC(=O)[C@H](CO)NC(=O)[C@H](CCCNC(=N)N)NC(=O)[C@H](CSSC[C@H](NC(=O)[C@H](CCCCN)NC(=O)[C@H](C)NC(=O)CNC(=O)[C@H](CCCCN)NC(=O)CNC1=O)C(=O)N[C@@H](CO)C(=O)N[C@@H](CCCNC(=N)N)C(=O)N[C@@H](CC(C)C)C(=O)N[C@@H](CCSC)C(=O)N[C@@H](Cc1ccc(O)cc1)C(=O)N[C@@H](CC(=O)O)C(=O)N3)NC(=O)[C@H](CO)NC(=O)CNC(=O)[C@H]([C@@H](C)O)NC2=O", "note": "[K2-MVIIA]", "values": [{"measurement": "ANS fluorescence intensity with increasing peptide concentration (self-assembly)", "setting": "[1]", "value": "significant increase in fluorescence intensity"}, {"measurement": "self-assembled morphology by TEM", "setting": "[2]", "value": "nanomicellar structures"}, {"measurement": "remaining at 24 h", "setting": "[3]", "value": 78.7, "unit": "%"}]}
{"smiles": "CSCC[C@@H]1NC(=O)[C@H](CC(C)C)NC(=O)[C@H](CCCNC(=N)N)NC(=O)[C@H](CO)NC(=O)[C@@H]2CSSC[C@@H]3NC(=O)[C@H](CO)NC(=O)CNC(=O)[C@H]([C@@H](C)O)NC(=O)[C@H](CSSC[C@H](N)C(=O)N[C@@H](CCCCN)C(=O)NCC(=O)N[C@@H](CCCCN)C(=O)NCC(=O)N[C@@H](C)C(=O)N[C@@H](CCCCN)C(=O)N2)NC(=O)[C@H](CSSC[C@@H](C(N)=O)NC(=O)[C@H](CCCCN)NC(=O)CNC(=O)[C@H](CO)NC(=O)[C@H](CCCNC(=N)N)NC3=O)NC(=O)[C@H](CC(=O)O)NC(=O)[C@H](Cc2ccc(O)cc2)NC1=O", "note": "[MVIIA, ω-conotoxin MVIIA, reference compound]", "values": [{"measurement": "ANS fluorescence intensity with increasing peptide concentration (self-assembly)", "setting": "[1]", "value": "almost no increase in fluorescence intensity"}, {"measurement": "self-assembled morphology by TEM", "setting": "[2]", "value": "oligomers"}]}
{"smiles": "CCCCCCCCCCCCCCNCCCC[C@@H]1NC(=O)CNC(=O)[C@H](CCCCNCCCCCCCCCCCCCC)NC(=O)[C@@H](N)CSSC[C@@H]2NC(=O)[C@@H]3CSSC[C@@H](C(N)=O)NC(=O)[C@H](CCCCN)NC(=O)CNC(=O)[C@H](CO)NC(=O)[C@H](CCCNC(=N)N)NC(=O)[C@H](CSSC[C@H](NC(=O)[C@H](CCCCN)NC(=O)[C@H](C)NC(=O)CNC1=O)C(=O)N[C@@H](CO)C(=O)N[C@@H](CCCNC(=N)N)C(=O)N[C@@H](CC(C)C)C(=O)N[C@@H](CCSC)C(=O)N[C@@H](Cc1ccc(O)cc1)C(=O)N[C@@H](CC(=O)O)C(=O)N3)NC(=O)[C@H](CO)NC(=O)CNC(=O)[C@H]([C@@H](C)O)NC2=O", "note": "[K2-K4-MVIIA]", "values": [{"measurement": "ANS fluorescence intensity with increasing peptide concentration (self-assembly)", "setting": "[1]", "value": "significant increase in fluorescence intensity"}, {"measurement": "self-assembled morphology by TEM", "setting": "[2]", "value": "nanomicellar structures"}, {"measurement": "remaining at 24 h", "setting": "[3]", "value": 75.6, "unit": "%"}]}
